Source: US20240424115A1, “LONG-ACTING INTERLEUKIN-15 RECEPTOR AGONISTS AND RELATED IMMUNOTHERAPEUTIC COMPOSITIONS AND METHODS” (Nektar Therapeutics, priority 2017, published 2024)

Key:
human PBMCs = assay: HuPBMC-pStat5 assay (flow cytometry, lymphocyte subpopulations); format: cell-based
Procedure: The potency of IL-15 or long acting IL-15 R agonists on various human lymphocyte subpopulations was determined by phospho-STAT5 (Y694) dose response assay. Frozen human PBMCs from multiple donors were supplied by AllCells. 1×10^6 cells/100ul were cultured in complete RPMI media for 2 hours and then incubated with the indicated concentrations (10,000ng/ml-0.001ng/ml serial dilutions) of IL-15 or conjugates for 20minutes at 37c. The cells were then fixed (using BD Cytofix) and permeabilized (using 100% pre-chilled methanol) and stained with antibodies for CD3, CD4, CD8, CD4-Tregs (CD4+CD25+Foxp3+), CD56 and phosphorylated STAT5 (Y694) before analysis by flow cytometry. Concentration-response relationships were used to calculate the EC50 values.
Assessment of in-vitro activity of exemplary long-acting IL-15 receptor agonists (e.g., Conjugates 1, 3 and 5) was carried out by investigating signaling in NK cell subsets of human PBMCs as shown in FIGS. 10A (CD56bright cells) and 10B (CD56dim cells). STAT5 phosphorylation was evaluated as previously described for assessing IL-15 signaling activity of the long acting IL-15 receptor agonists.
A second study was conducted to investigate/compare the pStat5 response of human PBMCs obtained from two donors (CD3, CD4, CD8, CD56 (bright and dim) and CD4-Tregs (CD25+Foxp3+)) to IL-15, Conjugate 1 and Conjugate 5. An […] dose response was examined using a 10-fold dilution with a dose range of 0.001-10000 ng/ml and a 20 min stimulation. Each of the test articles was diluted in IL-15 buffer+0.1% BSA.
Assessment of in vitro activity of Conjugate 1 was carried out by investigating NK and CD8 JAK/STAT signaling after treatment of human PBMCs with IL-15 or Conjugate 1 at a dose range of 0.001-10000 ng/ml. STAT5 phosphorylation was assessed as previously described.

CTLL-2 cells = assay: Potency assay based on STAT5 phosphorylation in CTLL-2 cells; format: cell-based, murine; details: Table 2B
Procedure: In the phospho-STAT5 assay following receptor binding, downstream cell signaling can then activate Signal Transducer and Activator of Transcription 5 (STAT5) through phosphorylation to promote gene expression to induce cell proliferation. The activation of phosho-STAT5 is measured in CTLL-2 cells, a murine T lymphocyte cell line, using the phospho-STAT5/total STAT5 multiplexed assay (Meso Scale Discovery, MD) in response to sample and reference treatment for ˜10 minutes.
One day prior to the assay, CTLL-2 cells were split into fresh growth medium [RPMI 1640 supplemented with 10% FBS, 10% T-cell culture supplement (catalog #354115, Corning, Inc., Tewksbury, MA), 2 mM L-glutamate, and 1 mM sodium pyruvate]. On the day of assay, cells were pre-incubated in assay medium (RPMI 1640 supplemented with 1% FBS, 2 mM L-glutamate, and 1 mM sodium pyruvate) for at least four hours, and then plated in assay medium in a 96-well plate at 50,000 cells/well. Dilutions of the test article were prepared in an appropriate buffer immediately prior to assay. Stimulation of CTLL-2 cells was initiated by the transfer of 25X test article solutions to triplicate wells containing CTLL-2 cells. Plates were incubated at 37° C., 5% CO2 for 10 minutes, and the reaction was stopped by cell lysis. Detection of phospho-STAT5 and total STAT5 protein levels in cell lysates was performed using the MSD Phospho (Tyr694)/Total STATa,b Whole Cell Lysate Kit (Meso Scale Discovery, MD).

CD4, CD8, and NK cells = assay: In vivo IL-15 signaling (STAT5 phosphorylation in lymphocytes) in mice
From the text: Conventional approaches, such as those involving radiolabeling a compound, administering the compound in vivo, and determining its clearance, can be used to assess whether a compound proposed to be a long-acting, IL-15 R agonist is “long-acting” (i.e., has a clearance that is longer than that of IL-15 administered in the same in vivo system). For the purposes herein, the long acting nature of a long-acting IL-15 R agonist may be, and is typically determined using flow cytometry to measure STAT5 phosphorylation in lymphocytes at various time points after administration of the agonist to be evaluated in mice. As a reference, the signal is lost by around 24 hours with IL-15, but is sustained for a period greater than that for a long-acting IL-15 agonist.
Mice were dosed as described in Example 6 above to assess in-vivo signaling as assessed by degree of STAT5 phosphorylation. Degree of STAT5 phosphorylation in various lymphocytes (CD4, CD8, and NK cells) was assessed by staining whole blood for leukocyte surface markers and pSTAT5, followed by measurement by flow cytometry. Results are shown in FIGS. 8A and 8 B for IL-15 and for Conjugate 2, respectively.
[PK methods previously described herein].
STAT5 phosphorylation in CD4 T cells was determined by using a CD3+CD4+CD8-pSTAT5+ marker combination. FIG. 43 is a plot of pSTAT5 phosphorylation percent positivity within CD4 T cells over time (at 0.25, 1, 6, 24, 48, 72, 96 and 120 hours post administration) at a dose of 0.03 mg/kg (blue, solid squares) or 0.3 mg/kg (orange, solid circles). The vehicle over time (black) and pre-dose (open circles) levels are also shown.

What does the source list for “IL-15: recombinant human IL-15 from E. coli, SEQ ID NO: 1, non-glycosylated, 12.9 kDa; unconjugated comparator”?
EC50 (ng/ml)-% pSTAT5 CD3 donor1 (human PBMCs; CD3 cells, donor1, 20 min stimulation): 0.17 ng/ml; EC50 (ng/ml)-% pSTAT5 CD3 donor2 (human PBMCs; CD3 cells, donor2, 20 min stimulation): 0.17 ng/ml; EC50 (ng/ml)-% pSTAT5 Treg donor1 (human PBMCs; CD4-Treg cells, donor1): 0.08 ng/ml; EC50 (ng/ml)-% pSTAT5 Treg donor2 (human PBMCs; CD4-Treg cells, donor2): 0.084 ng/ml; EC50 (ng/ml)-% pSTAT5 CD4 donor1 (human PBMCs; CD4 cells, donor1): 0.177 ng/ml; EC50 (ng/ml)-% pSTAT5 CD4 donor2 (human PBMCs; CD4 cells, donor2): 0.20 ng/ml; EC50 (ng/ml)-% pSTAT5 CD8 donor1 (human PBMCs; CD8 cells, donor1): 0.17 ng/ml; EC50 (ng/ml)-% pSTAT5 CD8 donor2 (human PBMCs; CD8 cells, donor2): 0.15 ng/ml; EC50 (ng/ml)-% pSTAT5 CD56bright donor1 (human PBMCs; CD56bright cells, donor1): 0.11 ng/ml; EC50 (ng/ml)-% pSTAT5 CD56bright donor2 (human PBMCs; CD56bright cells, donor2): 0.19 ng/ml; EC50 (ng/ml)-% pSTAT5 CD56dim donor1 (human PBMCs; CD56dim cells, donor1): 0.26 ng/ml; EC50 (ng/ml)-% pSTAT5 CD56dim donor2 (human PBMCs; CD56dim cells, donor2): 0.54 ng/ml; EC50 (ng/ml) pSTAT5 CD56bright NK (human PBMCs; Table 3, CD56bright NK cells): 0.4 ng/ml; EC50 (ng/ml)-% pSTAT5 CD3 (human PBMCs; Table 7 Summary Table, CD3): 0.17 ng/ml; EC50 (ng/ml)-% pSTAT5 CD4 (human PBMCs; Table 7 Summary Table, CD4): 0.177 ng/ml; EC50 (ng/ml)-% pSTAT5 CD8 (human PBMCs; Table 7 Summary Table, CD8): 0.17 ng/ml; EC50 (ng/ml)-% pSTAT5 CD56bright (human PBMCs; Table 7 Summary Table, CD56bright): 0.11 ng/ml; EC50 (ng/ml)-% pSTAT5 CD56dim (human PBMCs; Table 7 Summary Table, CD56dim): 0.26 ng/ml; EC50 (ng/ml)-% pSTAT5 Treg (human PBMCs; Table 7 Summary Table, Treg): 0.08 ng/ml; EC50 (ng/ml)-MFI CD3 donor1 (human PBMCs; pSTAT5 MFI, CD3 cells, donor1): 4.0 ng/mL; EC50 (ng/ml)-MFI CD3 donor2 (human PBMCs; pSTAT5 MFI, CD3 cells, donor2): 5.22 ng/mL; EC50 (ng/ml)-MFI Treg donor1 (human PBMCs; pSTAT5 MFI, CD4-Treg cells, donor1): 0.6 ng/mL; EC50 (ng/ml)-MFI Treg donor2 (human PBMCs; pSTAT5 MFI, CD4-Treg cells, donor2): 0.71 ng/mL; EC50 (ng/ml)-MFI CD4 donor1 (human PBMCs; pSTAT5 MFI, CD4 cells, donor1): 3.6 ng/mL; EC50 (ng/ml)-MFI CD4 donor2 (human PBMCs; pSTAT5 MFI, CD4 cells, donor2): 5.8 ng/mL; EC50 (ng/ml)-MFI CD8 donor1 (human PBMCs; pSTAT5 MFI, CD8 cells, donor1): 3.5 ng/mL; EC50 (ng/ml)-MFI CD8 donor2 (human PBMCs; pSTAT5 MFI, CD8 cells, donor2): 5.5 ng/mL; EC50 (ng/ml)-MFI CD56bright donor1 (human PBMCs; pSTAT5 MFI, CD56bright cells, donor1): 0.49 ng/mL; EC50 (ng/ml)-MFI CD56bright donor2 (human PBMCs; pSTAT5 MFI, CD56bright cells, donor2): 0.96 ng/mL; EC50 (ng/ml)-MFI CD56dim donor1 (human PBMCs; pSTAT5 MFI, CD56dim cells, donor1): 1.4 ng/mL; EC50 (ng/ml)-MFI CD56dim donor2 (human PBMCs; pSTAT5 MFI, CD56dim cells, donor2): 3.7 ng/mL; EC50 (ng/mL) CTLL-2 pSTAT5 (CTLL-2 cells): 0.27 ng/mL; duration of in-vivo STAT5 phosphorylation activity in NK and CD8 cells (CD4, CD8, and NK cells; C57BL/6 mice, single i.v. 0.3 mg/kg): extremely short-lived; time by which the STAT5 phosphorylation signal in lymphocytes is lost (CD4, CD8, and NK cells; mice, reference): around 24 hours
